# Like-named read-outs stand apart in the source and are kept apart here. Marks after values point to notes of the source that are not given here.
# Legend:
# [1] = test system: NAD(P)H: quinone oxidoreductase-1; design: method as in PMID 31527169; settings: results in redox cycling and ROS generation; cited from earlier work
# [2] = test system: phosphorylated STAT3 (pSTAT3); assay: pSTAT3 IHC staining of tumor samples; format: in vivo, Japanese patients; settings: one colorectal cancer patient
# Method: (§1) Assessments of antitumor activity were objective tumor response, median progression-free survival (PFS) and median overall survival (OS). Tumor response was evaluated according to RECIST 1.1 [21]. Median PFS was defined as the time from the day of the first dose of napabucasin to the date of progressive disease (PD), if neither was observed, the patient was to be censored at the last assessment of tumor response. Median OS was defined as the time from the first dose of napabucasin to the date of death from any cause. Patients who were still alive at the final observation were to be censored at the date they were last known to be alive. STAT3 single nucleotide polymorphism (SNP) genotyping was carried out using DNA extracted from whole blood samples to assess tumor response, median PFS, and median OS. Immunohistochemistry (IHC), mutation analysis (Oncomine Comprehensive Assay), and microsatellite instability analyses were performed in tumor tissue samples obtained from patients who provided additional consent to assess the relationship between specific biomarkers and the antitumor activity of napabucasin. IHC staining of phosphorylated STAT3 (pSTAT3) was carried out on archived tumor samples which were collected pre-treatment, and de novo lesions during and post-treatment were also collected, according to the protocol of a recent Phase 3 study. Positive pSTAT3 staining was defined as cancer cell nuclear staining ≥ 5% plus a stroma staining score of at least 2. The biomarker testing facility was responsible for IHC staining and storage of tumor samples. If consent to a genetic test was withdrawn, samples and associated analyses were discarded.
# advanced cancer = settings: cited from earlier work
# CSCs = test system: CSCs; design: method as in PMID 25605917; settings: cited from earlier work
# prostate cancer cell = test system: prostate cancer cell; design: method as in PMID 26899963; settings: in vitro; cited from earlier work
# [3] = design: method as in doi:10.1200/JCO.2018.36.15_suppl.4110, doi:10.1200/JCO.2017.35.4_suppl.593; settings: napabucasin 240 mg BID in combination with standard treatment; cited from earlier work
# [4] = Plasma and urine pharmacokinetics of napabucasin in patients; format: in vivo, Japanese patients; settings: for AUC(0-t) / AUC(0-inf) / Cmax / half-life / Tmax: human, oral; for AUC(0-t) / AUC(0-inf) / Cmax / half-life / Tmax / CL/F, range / CL/F, range (apparent total clearance at steady state): plasma; for AUC(0-inf): read-out: AUC0–∞, range; for Cmax: read-out: Cmax, range; for half-life: read-out: t1/2, range; for Tmax: read-out: tmax, range
# Method: Blood samples for PK were obtained on Days 1, 2, 8, and 15 of Cycle 1 and Days 29 and 30 of Cycle 2. On Day 1 of Cycle 1 and Day 29 of Cycle 2, blood samples were collected before the morning dose and at 2, 4, 6, 8, 10, 12, and 24 h after the morning dose of napabucasin; for samples collected 24 h following the morning dose of napabucasin on Day 1 and Day 29, collection occurred before the morning dose was administered on Day 2 and Day 30, respectively. On Days 8 and 15 of Cycle 1, blood samples were taken 168 and 336 h after the morning dose on Day 1. Urine samples were taken on Days 1 and 2 of Cycle 1 and Days 29 and 30 of Cycle 2. Samples were collected immediately after the morning dose on Days 1 and 29 through to immediately before the morning dose the next day. Plasma napabucasin concentration was measured by Frontage Laboratories and CMIC Pharma Science Co., Ltd and urine napabucasin concentration was measured by CMIC Pharma Science Co., Ltd.
# (§2) The safety and antitumor activity (intention-to-treat [ITT]) analysis populations included all patients that received at least one dose of napabucasin. The DLT analysis population included all patients that received at least one dose of napabucasin with at least 80% compliance ([number of capsules actually ingested/number of capsules that should have been ingested per dose […]] × 100) during the DLT evaluation period, and those patients who experienced DLT during the evaluation period regardless of compliance. The PK population included all patients that received at least one dose of napabucasin and had plasma napabucasin concentration data for at least one-time point after the first dose of napabucasin.
# advanced solid tumors = assay: Antitumor activity (RECIST 1.1 tumor response, PFS, OS, STAT3 SNP genotype); format: in vivo, Japanese patients
# Method: as §1, §2
# [5] = Post-napabucasin: Day 26 from the first dose, treatment ongoing
# [6] = 240 mg, Cycle 1 (Day 1), Cohort 1 (480 mg/day, 240 mg BID), n = 3
# [7] = 240 mg, Cycle 2 (Day 29), Cohort 1 (480 mg/day, 240 mg BID), n = 3
# [8] = 480 mg, Cycle 1 (Day 1), Cohort 2 (960 mg/day, 480 mg BID), n = 4
# [9] = 480 mg, Cycle 2 (Day 29), Cohort 2 (960 mg/day, 480 mg BID), n = 3
# [10] = 720 mg, Cycle 1 (Day 1), Cohort 3 (1440 mg/day, 720 mg BID), n = 7
# [11] = 720 mg, Cycle 2 (Day 29), Cohort 3 (1440 mg/day, 720 mg BID), n = 5
structure (smiles),measurement,setting,value
CC(=O)c1cc2c(o1)C(=O)c1ccccc1C2=O [napabucasin],Bioactivation,[1],bioactivated by NAD(P)H: quinone oxidoreductase-1
same,pSTAT3 status,"[2]; post-napabucasin (during treatment), positive = nuclear staining ≥ 5% plus stroma score at least 2",positive
same,% Nuclear tumor positive (pSTAT3 IHC),[2]; [5],10%
same,H-score (pSTAT3 IHC),[2]; [5],15
same,Microenvironment % positive (pSTAT3 IHC),[2]; [5],50%
same,Microenvironment intensity (pSTAT3 IHC),[2]; [5],2
same,Percent nuclear tumor staining 0 (pSTAT3 IHC),[2]; [5],90%
same,Percent nuclear tumor staining 1 + (pSTAT3 IHC),[2]; [5],5%
same,Percent nuclear tumor staining 2 + (pSTAT3 IHC),[2]; [5],5%
same,Percent nuclear tumor staining 3 + (pSTAT3 IHC),[2]; [5],0%
same,Dose up to which napabucasin was well tolerated,"advanced cancer; 14 cohorts, N = 41",up to 2000 mg/day
same,Patients with SD as the best response,advanced cancer; Phase 1 dose-escalation study,65%
same,Selectivity for CSCs,CSCs,"selectively targets CSCs, leaving normal hematopoietic stem cells unaffected"
same,Effect on prostate cancer cells,prostate cancer cell,"inhibited prostate cancer cell survival, motility, and tumorigenesis in vitro"
same,DLTs,[3],no DLTs
same,AUC(0-t),"[4]; 240 mg, Cycle 1 (Day 1), Cohort 1 (480 mg/day, 240 mg BID), n = 3, read-out: AUC0–12, range",1370 to 2990 ng·h/mL
same,AUC(0-t),"[4]; 240 mg, Cycle 1 (Day 1), Cohort 1 (480 mg/day, 240 mg BID), n = 3, read-out: AUC0–24, range",2020 to 3800 ng·h/mL
same,AUC(0-inf),[4]; [6],3650 to 4060 ng·h/mL
same,Cmax,[4]; [6],194 to 468 ng/mL
same,half-life,[4]; [6],5 to 25 h
same,Tmax,[4]; [6],4 to 6 h
same,AUC(0-t),"[4]; 240 mg, Cycle 2 (Day 29), Cohort 1 (480 mg/day, 240 mg BID), n = 3, read-out: AUC0–12, range",2190 to 4940 ng·h/mL
same,AUC(0-t),"[4]; 240 mg, Cycle 2 (Day 29), Cohort 1 (480 mg/day, 240 mg BID), n = 3, read-out: AUC0–24, range",2510 to 6180 ng·h/mL
same,AUC(0-inf),[4]; [7],2570 to 6370 ng·h/mL
same,Cmax,[4]; [7],472 to 652 ng/mL
same,half-life,[4]; [7],4 to 5 h
same,Tmax,[4]; [7],4 to 10 h
same,AUC(0-t),"[4]; 480 mg, Cycle 1 (Day 1), Cohort 2 (960 mg/day, 480 mg BID), n = 4, read-out: AUC0–12, range",984 to 4780 ng·h/mL
same,AUC(0-t),"[4]; 480 mg, Cycle 1 (Day 1), Cohort 2 (960 mg/day, 480 mg BID), n = 4, read-out: AUC0–24, range",1200 to 6360 ng·h/mL
same,AUC(0-inf),[4]; [8],1410 to 7360 ng·h/mL
same,Cmax,[4]; [8],199 to 719 ng/mL
same,half-life,[4]; [8],7 to 8 h
same,Tmax,[4]; [8],2 to 6 h
same,AUC(0-t),"[4]; 480 mg, Cycle 2 (Day 29), Cohort 2 (960 mg/day, 480 mg BID), n = 3, read-out: AUC0–12, range",2560 to 2760 ng·h/mL
same,AUC(0-t),"[4]; 480 mg, Cycle 2 (Day 29), Cohort 2 (960 mg/day, 480 mg BID), n = 3, read-out: AUC0–24, range",2750 to 2880 ng·h/mL
same,AUC(0-inf),[4]; [9],2750 to 2880 ng·h/mL
same,Cmax,[4]; [9],391 to 477 ng/mL
same,half-life,[4]; [9],2 to 3 h
same,Tmax,[4]; [9],2 to 10 h
same,AUC(0-t),"[4]; 720 mg, Cycle 1 (Day 1), Cohort 3 (1440 mg/day, 720 mg BID), n = 7, read-out: AUC0–12, range",3440 to 11000 ng·h/mL
same,AUC(0-t),"[4]; 720 mg, Cycle 1 (Day 1), Cohort 3 (1440 mg/day, 720 mg BID), n = 7, read-out: AUC0–24, range",3920 to 14500 ng·h/mL
same,AUC(0-inf),[4]; [10],3870 to 14800 ng·h/mL
same,Cmax,[4]; [10],641 to 2070 ng/mL
same,half-life,[4]; [10],3 to 12 h
same,Tmax,[4]; [10],2 to 6 h
same,AUC(0-t),"[4]; 720 mg, Cycle 2 (Day 29), Cohort 3 (1440 mg/day, 720 mg BID), n = 5, read-out: AUC0–12, range",3650 to 15400 ng·h/mL
same,AUC(0-t),"[4]; 720 mg, Cycle 2 (Day 29), Cohort 3 (1440 mg/day, 720 mg BID), n = 5, read-out: AUC0–24, range",4480 to 20200 ng·h/mL
same,AUC(0-inf),[4]; [11],4740 to 123000 ng·h/mL
same,Cmax,[4]; [11],596 to 1930 ng/mL
same,half-life,[4]; [11],5 to 192 h
same,Tmax,[4]; [11],2 to 4 h
same,Difference in Cmax and AUC0–12 between doses,"[4]; plasma, 480, 960, 1440 mg/day",no clear difference between doses
same,"CL/F, range","[4]; Cycle 1 (Day 1), Cohort 1 (480 mg/day, 240 mg BID), n = 3",59 to 66 L/h
same,"CL/F, range","[4]; Cycle 1 (Day 1), Cohort 2 (960 mg/day, 480 mg BID), n = 4",65 to 341 L/h
same,"CL/F, range","[4]; Cycle 1 (Day 1), Cohort 3 (1440 mg/day, 720 mg BID), n = 7",49 to 186 L/h
same,"CL/F, range (apparent total clearance at steady state)","[4]; Cycle 2 (Day 29), Cohort 1 (480 mg/day, 240 mg BID), n = 3",49–109^a L/h
same,"CL/F, range (apparent total clearance at steady state)","[4]; Cycle 2 (Day 29), Cohort 2 (960 mg/day, 480 mg BID), n = 3",174–188^a L/h
same,"CL/F, range (apparent total clearance at steady state)","[4]; Cycle 2 (Day 29), Cohort 3 (1440 mg/day, 720 mg BID), n = 5",47–197^a L/h
same,Accumulation in plasma,"[4]; repeated BID dosing, Cycle 1 to Cycle 2",no abnormal accumulation was observed
same,Difference in urinary PK between cohorts,"[4]; urine, 480, 960, 1440 mg/day",no clear differences were observed between cohorts
same,Median OS,advanced solid tumors; Cohort 1 (480 mg/day),8.28 months
same,Median PFS,advanced solid tumors; Cohort 1 (480 mg/day),1.87 months
same,Median OS,advanced solid tumors; Cohort 2 (960 mg/day),5.03 months
same,Median PFS,advanced solid tumors; Cohort 2 (960 mg/day),1.76 months
same,Median OS,advanced solid tumors; Cohort 3 (1440 mg/day),5.68 months
same,Median PFS,advanced solid tumors; Cohort 3 (1440 mg/day),1.45 months
same,Antitumor activity by STAT3 SNP genotype,"advanced solid tumors; DNA from whole blood, G/G, C/C, C/G genotypes","no difference in antitumor activity between G/G, C/C, and C/G genotypes"
same,Median OS,advanced solid tumors; ITT population,5.83 months
same,Median PFS,advanced solid tumors; ITT population,1.71 months
same,Patients with progressive disease (PD),"advanced solid tumors; RECIST 1.1, 14 patients",12 patients
same,Patients with stable disease (SD) as best overall tumor response,"advanced solid tumors; RECIST 1.1, 14 patients, both colorectal cancer",two
same,Duration of SD,advanced solid tumors; one patient in Cohort 1 (480 mg/day),56 days
same,Duration of SD,advanced solid tumors; one patient in Cohort 3 (1440 mg/day),82 days
same,Proportion of patients who achieved SD,advanced solid tumors; this study,14%
